Results on 27 compounds are retold here after US11008572B2, “Methods and compositions for modulating splicing” (SKYHAWK THERAPEUTICS, INC., priority 2017, dated 2021).

A value given as a limit tells only on which side of the number the result lay.

One assay has as its system A-673 cells. The assay can be described thus: Cell viability, crystal violet staining. The following applies: Homo sapiens, A673, cell viability, read-out: A-673 IC50 (nM), Cell viability. The assay is classed as cell-based. How it is done: To measure cell viability, cells were plated in 96-well plastic tissue culture plates at a density of 5×10^3 cells/well. Twenty-four hours after plating, cells were treated with various SMSMs. After 72 hours, the cell culture media were removed and plates were stained with […] of a solution containing 0.5% crystal violet and 25% methanol, rinsed with deionized water, dried overnight, and resuspended in […] citrate buffer (0.1 M sodium citrate in 50% ethanol) to assess plating efficiency. Intensity of crystal violet staining, assessed at 570 nm and quantified using a Vmax Kinetic Microplate Reader and Softmax software (Molecular Devices Corp., Menlo Park, Calif.), were directly proportional to cell number. Data were normalized to vehicle-treated cells and were presented as the mean±SE from representative experiments. SMSMs that are effective were determined for various cells lines.
A-673 cell viability […], splicing (IC50) and brain AUC/Plasma AUC of SMSMs were determined. As shown in the tables below SMSMs had high CNS exposure.
`Cc1ncc(-c2ccc(-c3ccc(N(C)[C@@H]4C[C@H]5CC[C@@H](C4)N5)nn3)c(O)c2)cn1` [compound 237, 2-(6-(((1R,3s,5S)-8-azabicyclo[3.2.1]octan-3-yl)(methyl)amino)pyridazin-3-yl)-5-(2-methylpyrimidin-5-yl)phenol]: the IC50 is 501 to 1000 nM.

For `Cc1ncn(-c2ccc(-c3ccc(N(C)[C@@H]4C[C@H]5CC[C@@H](C4)N5)nn3)c(O)c2)n1` [compound 244, 2-(6-(((1R,3s,5S)-8-azabicyclo[3.2.1]octan-3-yl)(methyl)amino)pyridazin-3-yl)-5-(3-methyl-1H-1,2,4-triazol-1-yl)phenol], the IC50 was 101 to 250 nM.

Consider `Cc1nnc(-c2ccc(-c3ccc(O[C@@H]4C[C@H]5CC[C@@H](C4)N5)nn3)c(O)c2)o1` [compound 247, 2-(6-(((1R,3s,5S)-8-azabicyclo[3.2.1]octan-3-yl)oxy)pyridazin-3-yl)-5-(5-methyl-1,3,4-oxadiazol-2-yl)phenol], for which the IC50 was greater than 1000 nM.

Consider `Oc1cc(-n2cccn2)ccc1-c1ccc(O[C@@H]2C[C@H]3CC[C@@H](C2)N3)nn1` [compound 248, 2-(6-(((1R,3s,5S)-8-azabicyclo[3.2.1]octan-3-yl)oxy)pyridazin-3-yl)-5-(1H-pyrazol-1-yl)phenol], for which the IC50 was 501 to 1000 nM.

For `CN(c1ccc(-c2ccc(-c3ccn(C)c(=O)c3)cc2O)nn1)[C@H]1C[C@]2(C)CCC[C@](C)(C1)N2` [compound 259, 4-(4-(6-(((1R,3s,5S)-1,5-dimethyl-9-azabicyclo[3.3.1]nonan-3-yl)(methyl)amino)pyridazin-3-yl)-3-hydroxyphenyl)-1-methylpyridin-2(1H)-one], the 50% inhibitory concentration (IC50) was less than 10 nM.

`CN(c1ccc(-c2ccc(-c3cnn(C)c(=O)c3)cc2O)nn1)[C@H]1C[C@]2(C)CCC[C@](C)(C1)N2` [compound 260, 5-(4-(6-(((1R,3s,5S)-1,5-dimethyl-9-azabicyclo[3.3.1]nonan-3-yl)(methyl)amino)pyridazin-3-yl)-3-hydroxyphenyl)-2-methylpyridazin-3(2H)-one]: the IC50 was less than 10 nM.

Take `CNC(=O)c1cc2cc(-c3ccc(N(C)[C@H]4C[C@]5(C)CCC[C@](C)(C4)N5)nn3)c(O)cc2o1` [compound 261, 5-(6-(((1R,3s,5S)-1,5-dimethyl-9-azabicyclo[3.3.1]nonan-3-yl)(methyl)amino)pyridazin-3-yl)-6-hydroxy-N-methylbenzofuran-2-carboxamide]: the half-maximal inhibitory concentration (IC50) lay in the range of 10 to 100 nM.

`C[C@]12CCC[C@](C)(C[C@@H](Oc3ccc(-c4ccc(-c5cn[nH]c5)cc4O)nn3)C1)N2` [compound 262, 2-(6-(((1R,3s,5S)-1,5-dimethyl-9-azabicyclo[3.3.1]nonan-3-yl)oxy)pyridazin-3-yl)-5-(1H-pyrazol-4-yl)phenol]: the 50% inhibitory concentration (IC50) fell in the range of 101 to 250 nM.

For `C[C@]12CCC[C@](C)(C[C@@H](Oc3ccc(-c4cc(F)c(-c5cn[nH]c5)cc4O)nn3)C1)N2` [compound 263, 2-(6-(((1R,3s,5S)-1,5-dimethyl-9-azabicyclo[3.3.1]nonan-3-yl)oxy)pyridazin-3-yl)-4-fluoro-5-(1H-pyrazol-4-yl)phenol], the IC50 is less than 10 nM.

On to `CN(c1ccc(-c2cc(F)c(-c3ccn(C)c(=O)c3)cc2O)nn1)[C@H]1C[C@]2(C)CCC[C@](C)(C1)N2` [compound 265, 4-(4-(6-(((1R,3s,5S)-1,5-dimethyl-9-azabicyclo[3.3.1]nonan-3-yl)(methyl)amino)pyridazin-3-yl)-2-fluoro-5-hydroxyphenyl)-1-methylpyridin-2(1H)-one], for which the IC50 was less than 10 nM.

Consider `[2H]C([2H])([2H])Oc1cc(-c2ccc(-c3ccc(N(C)[C@H]4C[C@]5(C)CCC[C@](C)(C4)N5)nn3)c(O)c2)cnn1` [compound 268, 2-(6-(((1R,3s,5S)-1,5-dimethyl-9-azabicyclo[3.3.1]nonan-3-yl)(methyl)amino)pyridazin-3-yl)-5-(6-(methoxy-d3)pyridazin-4-yl)phenol], for which the half-inhibitory concentration (IC50) was less than 10 nM.

For `[2H]C([2H])([2H])Oc1cc(-c2cc(O)c(-c3ccc(N(C)[C@H]4C[C@]5(C)CCC[C@](C)(C4)N5)nn3)cc2F)cnn1` [compound 269, 2-(6-(((1R,3s,5S)-1,5-dimethyl-9-azabicyclo[3.3.1]nonan-3-yl)(methyl)amino)pyridazin-3-yl)-4-fluoro-5-(6-(methoxy-d3)pyridazin-4-yl)phenol], the IC50 is less than 10 nM.

For `CN(c1ccc(-c2cc(F)c(-c3cn[nH]c3)cc2O)nn1)[C@@H]1C[C@H]2CCC[C@@H](C1)N2` [compound 271, 2-(6-(((1R,3s,5S)-9-azabicyclo[3.3.1]nonan-3-yl)(methyl)amino)pyridazin-3-yl)-4-fluoro-5-(1H-pyrazol-4-yl)phenol], the IC50 was less than 10 nM.

`CN(c1ccc(-c2ccc(-n3ccnc3)cc2O)nn1)[C@@H]1C[C@H]2CCC[C@@H](C1)N2` [compound 272, 2-(6-(((1R,3s,5S)-9-azabicyclo[3.3.1]nonan-3-yl)(methyl)amino)pyridazin-3-yl)-5-(1H-imidazol-1-yl)phenol]: the IC50 fell in the range of 10 to 100 nM.

As to `Cc1ncc(-c2ccc(-c3ccc(N(C)[C@@H]4C[C@H]5CCC[C@@H](C4)N5)nn3)c(O)c2)o1` [compound 273, 2-(6-(((1R,3s,5S)-9-azabicyclo[3.3.1]nonan-3-yl)(methyl)amino)pyridazin-3-yl)-5-(2-methyloxazol-5-yl)phenol], the IC50 is less than 10 nM.

Turning to `Cc1ncc(-c2cc(O)c(-c3ccc(N(C)[C@@H]4C[C@H]5CCC[C@@H](C4)N5)nn3)cc2F)o1` [compound 274, 2-(6-(((1R,3s,5S)-9-azabicyclo[3.3.1]nonan-3-yl)(methyl)amino)pyridazin-3-yl)-4-fluoro-5-(2-methyloxazol-5-yl)phenol], the IC50 was less than 10 nM.

As to `CN(c1ccc(-c2ccc(-c3cnn(C)c(=O)c3)cc2O)nn1)[C@@H]1C[C@H]2CCC[C@@H](C1)N2` [compound 280, 5-(4-(6-(((1R,3s,5S)-9-azabicyclo[3.3.1]nonan-3-yl)(methyl)amino)pyridazin-3-yl)-3-hydroxyphenyl)-2-methylpyridazin-3(2H)-one], the IC50 is 10 to 100 nM.

As for `CN(c1ccc(-c2ccc(-c3ccn(C)c(=O)c3)cc2O)nn1)[C@@H]1C[C@H]2CCC[C@@H](C1)N2` [compound 283, 4-(4-(6-(((1R,3s,5S)-9-azabicyclo[3.3.1]nonan-3-yl)(methyl)amino)pyridazin-3-yl)-3-hydroxyphenyl)-1-methylpyridin-2(1H)-one], the half-maximal inhibitory concentration (IC50) is less than 10 nM.

`CN(c1ccc(-c2cc(F)c(-c3cnn(C)c(=O)c3)cc2O)nn1)[C@@H]1C[C@H]2CCC[C@@H](C1)N2` [compound 286, 5-(4-(6-(((1R,3s,5S)-9-azabicyclo[3.3.1]nonan-3-yl)(methyl)amino)pyridazin-3-yl)-2-fluoro-5-hydroxyphenyl)-2-methylpyridazin-3(2H)-one]: the IC50 was less than 10 nM.

Consider `CN(c1ccc(-c2ccc(-c3cnn(C)c3)cc2O)nn1)[C@@H]1C[C@H]2CCC[C@@H](C1)N2` [compound 287, 2-(6-(((1R,3s,5S)-9-azabicyclo[3.3.1]nonan-3-yl)(methyl)amino)pyridazin-3-yl)-5-(1-methyl-1H-pyrazol-4-yl)phenol], for which the IC50 was less than 10 nM.

`[2H]C([2H])([2H])n1cc(-c2ccc(-c3ccc(N(C)[C@@H]4C[C@H]5CCC[C@@H](C4)N5)nn3)c(O)c2)cn1` [compound 288, 2-(6-(((1R,3s,5S)-9-azabicyclo[3.3.1]nonan-3-yl)(methyl)amino)pyridazin-3-yl)-5-(1-(methyl-d3)-1H-pyrazol-4-yl)phenol]: the IC50 was 10 to 100 nM.

Consider `Cc1cc(-c2ccc(-c3ccc(N(C)[C@@H]4C[C@H]5CCC[C@@H](C4)N5)nn3)c(O)c2)cc(=O)n1C` [compound 290, 4-(4-(6-(((1R,3s,5S)-9-azabicyclo[3.3.1]nonan-3-yl)(methyl)amino)pyridazin-3-yl)-3-hydroxyphenyl)-1,6-dimethylpyridin-2(1H)-one], for which the IC50 was in the range of 251 to 500 nM.

`CN(c1ccc(-c2ccc(-c3ccn(CF)c(=O)c3)cc2O)nn1)[C@@H]1C[C@H]2CCC[C@@H](C1)N2` [compound 291, 4-(4-(6-(((1R,3s,5S)-9-azabicyclo[3.3.1]nonan-3-yl)(methyl)amino)pyridazin-3-yl)-3-hydroxyphenyl)-1-(fluoromethyl)pyridin-2(1H)-one]: the IC50 is less than 10 nM.

Consider `COc1cc(-c2ccc(-c3ccc(N(C)[C@@H]4C[C@H]5CCC[C@@H](C4)N5)nn3)c(O)c2)ccc1C` [compound 292, 4-(6-(((1R,3s,5S)-9-azabicyclo[3.3.1]nonan-3-yl)(methyl)amino)pyridazin-3-yl)-3′-methoxy-4′-methyl-[1,1′-biphenyl]-3-ol], for which the IC50 is greater than 1000 nM.

`CN(c1ccc(-c2ccc(-c3cc[nH]c(=O)c3)cc2O)nn1)[C@@H]1C[C@H]2CCC[C@@H](C1)N2` [compound 293, 4-(4-(6-(((1R,3s,5S)-9-azabicyclo[3.3.1]nonan-3-yl)(methyl)amino)pyridazin-3-yl)-3-hydroxyphenyl)pyridin-2(1H)-one]: the IC50 fell in the range of 10 to 100 nM.

For the compound `CNC(=O)c1cc2cc(O)c(-c3ccc(N(C)[C@@H]4C[C@H]5CCC[C@@H](C4)N5)nn3)cc2o1` [compound 294, 6-(6-(((1R,3s,5S)-9-azabicyclo[3.3.1]nonan-3-yl)(methyl)amino)pyridazin-3-yl)-5-hydroxy-N-methylbenzofuran-2-carboxamide], the IC50 is 501 to 1000 nM.

The assay is the same for the next values; noted with them: Homo sapiens, A673, read-out: A-673 cell viability (IC50).
With `CN(c1ccc(-c2ccc(-c3ccn(C)c(=O)c3)cc2O)nn1)[C@H]1C[C@]2(C)CCC[C@](C)(C1)N2` [compound 259, 4-(4-(6-(((1R,3s,5S)-1,5-dimethyl-9-azabicyclo[3.3.1]nonan-3-yl)(methyl)amino)pyridazin-3-yl)-3-hydroxyphenyl)-1-methylpyridin-2(1H)-one], the IC50 is less than 1 nM.

The same assay, now with this note: cell viability, read-out: A-673 IC50 (nM), Cell viability.
`Oc1cc(-c2cn[nH]c2)ccc1-c1ccc(O[C@@H]2C[C@H]3CCC[C@@H](C2)N3)nn1` [compound 276, 2-(6-(((1R,3s,5S)-9-azabicyclo[3.3.1]nonan-3-yl)oxy)pyridazin-3-yl)-5-(1H-pyrazol-4-yl)phenol]: the IC50 was in the range of 101 to 250 nM.

What is called IC50 is the midpoint of a concentration-inhibition curve.
